Data: ChEMBL document CHEMBL5356986, “Research status of indole-modified natural products” (RSC Med Chem, 2023)

Experiments:
[1] = Antiproliferative activity against human CaLo cells assessed as reduction in cell viability; format: functional, cell-based
SiHa = test: Antiproliferative activity against human SiHa cells assessed as inhibition of cell growth by MTT assay; format: functional, cell-based
C-33-A = test: Antiproliferative activity against human C-33-A cells assessed as reduction in cell viability measured after 48 hrs by MTT assay; format: functional, cell-based
Mu-type opioid receptor = Mu-type opioid receptor (Homo sapiens, UniProt P35372); test: Inhibition of mu opioid receptor (unknown origin)
LoVo = test: Cytotoxicity against human LoVo cells incubated for 72 hrs by MTT assay; format: functional, cell-based
HeLa [2] = test: Cytotoxicity against human HeLa cells assessed as reduction in cell viability; format: functional, cell-based
A2780 = test: Antiproliferative activity against human A2780 cells assessed as inhibition of cell growth; format: functional, cell-based
Bel-7402 = test: Cytotoxicity against human Bel-7402 cells measured after 72 hrs by MTT assay; format: functional, cell-based; details: Bel-7402, 72 h
A549 = test: Antiproliferative activity against human A549 cells assessed as cell growth inhibition measured after 72 hrs by MTT assay; format: functional, cell-based; details: A549, 72 h
PC-3 = test: Cytotoxicity against human PC-3 cells assessed as reduction in cell viability; format: functional, cell-based
MCF7 [3] = test: Antiproliferative activity against human MCF7 cells assessed as cell growth inhibition measured after 72 hrs by MTT assay; format: functional, cell-based; details: MCF7, 72 h
RD = test: Antiproliferative activity against human RD cells assessed as cell growth inhibition measured after 72 hrs by MTT assay; format: functional, cell-based
SGC-7901 [4] = test: Cytotoxicity against human SGC-7901 cells assessed as reduction in cell viability measured after 48 hrs by MTT colorimetric assay; format: functional, cell-based; details: SGC-7901, 48 h
MCF7 [5] = test: Antiproliferative activity against human MCF7 cells assessed as cell growth inhibition incubated for 6 days by SRB assay; format: functional, cell-based; details: MCF7, 144 h
SMMC-7721 = test: Antiproliferative activity against human SMMC-7721 cells assessed as reduction in cell growth by SRB assay; format: functional, cell-based
SK-BR-3 = test: Antiproliferative activity against human SK-BR-3 cells incubated for 72 hrs by MTT assay; format: functional, cell-based; details: SK-BR-3, 72 h
CAMA-1 = test: Antiproliferative activity against human CAMA-1 cells assessed as cell growth inhibition; format: functional, cell-based
MDA-MB-453 = test: Antiproliferative activity against human MDA-MB-453 cells assessed as reduction in cell growth after 72 hrs by MTT assay; format: functional, cell-based; details: MDA-MB-453, 72 h
MDA-MB-231 = test: Antiproliferative activity against human MDA-MB-231 cells assessed as cell growth inhibition; format: functional, cell-based
MCF7 [6] = test: Antiproliferative activity against human MCF7 cells assessed as inhibition of cell growth incubated for 24 hrs by MTT assay; format: functional, cell-based; details: MCF7, 24 h
SGC-7901 [7] = test: Antiproliferative activity against human SGC-7901 cells assessed as cell growth inhibition; format: functional, cell-based
HeLa [8] = test: Antiproliferative activity against human HeLa cells assessed as reduction in cell growth measured after 48 hrs by MTT assay; format: functional, cell-based
HCT-116 = test: Antiproliferative activity against human HCT-116 cells assessed as inhibition of cell growth; format: functional, cell-based
[9] = molecular target: Prostaglandin G/H synthase 2 (Homo sapiens, UniProt P35354); test: Inhibition of COX-2 (unknown origin)
Hep 3B2 = test: Cytotoxicity against human Hep3B cells assessed as inhibition of cell growth by MTT assay; format: functional, cell-based
HepG2 = test: Antiproliferative activity against human HepG2 cells assessed as inhibition of cell proliferation after 72 hrs by MTT assay; format: functional, cell-based; details: HepG2, 72 h

Sequence of Prostaglandin G/H synthase 2 (P35354 whole entry): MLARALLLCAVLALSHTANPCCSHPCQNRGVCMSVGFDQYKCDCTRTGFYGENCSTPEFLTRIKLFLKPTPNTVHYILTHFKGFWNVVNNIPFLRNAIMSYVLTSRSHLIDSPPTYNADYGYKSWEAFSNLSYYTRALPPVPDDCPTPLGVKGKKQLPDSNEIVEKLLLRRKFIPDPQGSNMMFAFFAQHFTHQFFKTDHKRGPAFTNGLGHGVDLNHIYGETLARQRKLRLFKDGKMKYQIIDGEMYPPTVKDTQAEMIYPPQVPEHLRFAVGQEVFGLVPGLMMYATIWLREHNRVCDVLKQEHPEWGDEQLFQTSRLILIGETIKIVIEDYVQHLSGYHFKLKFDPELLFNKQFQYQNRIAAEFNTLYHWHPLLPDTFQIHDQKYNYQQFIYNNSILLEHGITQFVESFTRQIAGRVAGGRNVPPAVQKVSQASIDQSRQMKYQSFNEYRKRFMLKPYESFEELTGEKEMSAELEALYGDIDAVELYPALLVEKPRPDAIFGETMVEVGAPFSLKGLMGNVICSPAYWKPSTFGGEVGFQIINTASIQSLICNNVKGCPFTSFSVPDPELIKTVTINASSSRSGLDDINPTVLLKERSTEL
Sequence of Mu-type opioid receptor (P35372 whole entry): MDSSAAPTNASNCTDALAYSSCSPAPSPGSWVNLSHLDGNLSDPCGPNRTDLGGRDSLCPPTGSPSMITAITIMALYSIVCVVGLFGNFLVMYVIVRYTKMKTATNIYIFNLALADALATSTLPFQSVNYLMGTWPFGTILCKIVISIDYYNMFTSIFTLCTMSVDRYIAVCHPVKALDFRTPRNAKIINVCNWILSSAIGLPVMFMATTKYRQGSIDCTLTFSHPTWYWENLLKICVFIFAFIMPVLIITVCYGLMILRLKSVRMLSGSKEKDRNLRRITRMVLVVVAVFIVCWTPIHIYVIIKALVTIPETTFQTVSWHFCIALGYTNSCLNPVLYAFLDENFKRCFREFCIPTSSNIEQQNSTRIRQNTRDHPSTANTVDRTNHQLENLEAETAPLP

Compound `O=C1C(Cl)=C(NC(Cc2c[nH]c3ccccc23)C(=O)O)C(=O)c2ccccc21` (stereo unspecified) has an IC50 [1] of 2.69 µM, an IC50 (SiHa) of 3.2 µM and an IC50 (C-33-A) of 0.003 µM.

Work on `O=C(N[C@@H]1CC[C@@]2(O)[C@H]3Cc4ccc(O)c5c4[C@@]2(CCN3CC2CC2)[C@H]1O5)c1cc2ccccc2[nH]1` yielded an IC50 (Mu-type opioid receptor) of 0.00021 µM.

`COc1cc(C2CCCCc3c2ccc2c3ccn2C)cc(OC)c1OC` (stereo unspecified) showed an IC50 (LoVo) of 0.049 µM, an IC50 (HeLa [2]) of 0.056 µM and an IC50 (A2780) of 0.037 µM. For the same compound, the IC50 (Bel-7402) was 0.039 µM, the IC50 (A549) was 0.022 µM and the IC50 (PC-3) was 0.047 µM. For the same compound, the IC50 (MCF7 [3]) was 0.051 µM.

`CC(=O)O[C@H]1C(=O)[C@@]2(C)[C@H]([C@H](OC(=O)c3ccccc3)[C@]3(O)C[C@H](OC(=O)[C@H](O)[C@@H](NC(=O)c4ccccc4)c4ccccc4)C(C)=C1C3(C)C)[C@]1(OC(C)=O)CO[C@@H]1C[C@@H]2O` [PACLITAXEL] showed an IC50 (RD) greater than 10 µM and an IC50 (SGC-7901 [4]) of 14.3 µM.

`CC[C@@]1(O)C(=O)OCc2c1cc1n(c2=O)Cc2cc3ccccc3nc2-1` [CAMPTOTHECIN] gave an IC50 (MCF7 [5]) of less than 0.01 µM, an IC50 (SMMC-7721) of 3.95 µM and an IC50 (SK-BR-3) of less than 0.01 µM. For the same compound, the IC50 (CAMA-1) was 0.07 µM, the IC50 (MDA-MB-453) was less than 0.01 µM and the IC50 (MDA-MB-231) was less than 0.01 µM.

In the case of `O=C(c1cc2ccc(Cl)cc2n1Cc1cccc2ccccc12)N(CCO)[C@@H]1CC(=O)N2C[C@@H]3CCCN4CCC[C@@H]([C@H]34)[C@H]2C1`, the IC50 (MCF7 [6]) is reported as 1.2 µM, the IC50 (SGC-7901 [7]) is reported as 1.1 µM and the IC50 (HeLa [8]) is reported as 0.9 µM.

For `COc1cc(C(=O)/C(C)=C/c2c[nH]c3cc(F)ccc23)cc(OC)c1OCCN`, the IC50 (HCT-116) was 0.0032 µM.

With `CC1=NN(c2ccccc2)C(=O)/C1=C\c1cn(CCCOc2cc(O)c3c(=O)cc(-c4ccccc4)oc3c2)c2ccccc12` the IC50 [9] was 0.7 µM.

For `O=C(/C=C(O)/C=C/c1c[nH]c2ccccc12)/C=C/c1c[nH]c2ccccc12`, the IC50 (Hep 3B2) was 14 µM.

For `COc1cc(/C=N/NC(=O)c2cn(Cc3ccccc3)c3ccccc23)cc(OC)c1OC`, the IC50 (HepG2) was 0.00063 µM.
